According to patent publication US9920014B2, “Selective inhibition of bacterial topoisomerase I” (THE FLORIDA INTERNATIONAL BOARD OF TRUSTEES MODESTO A. …, priority 2013, dated 2018):
Converted amounts (≈) assume the structure as drawn. “And” between values parts separate entries of the source, which are not always exact repeats. Equal values may be shown once. Read-outs that look alike come from different tables or passages of the source.

Experiments:
[1] = molecular target: human DNA topoisomerase II (Homo sapiens, UniProt P11388); assay: Inhibition assay against human DNA topoisomerase II (plasmid relaxation, agarose gel); type: biochemical; conditions: for inhibition of human DNA topoisomerase II activities at 50 μM: 50 μM compound; for IC50: 4 units enzyme, supercoiled pBAD-GFPuv, 30 min 37° C., read-out: IC50 hTopo II
Method: Inhibition Assays Against Human DNA Topoisomerase II:
The reaction mixture (25 μl) contained 20 mM Tris-HCl at pH 7.9, 50 mM KAc, 10 mM Mg(Ac)2, 1 mM DTT, 1 μg/mL BSA, 200 ng supercoiled plasmid pBAD-GFPuv, 4 units of Human topoisomerase II, and one of the compounds at a final concentration that ranges from 5 to 50 μM. All components were assembled on ice and incubated for 30 minutes at 37° C. After the incubation, the reactions were terminated by extraction with an equal volume of phenol. The topological state of the DNA samples was analyzed with 1% agarose gel electrophoresis in 1×TAE buffer, pH 7.8. Following electrophoresis, the agarose gel was stained with Ethidium Bromide, destained, and photographed under UV light. The intensity of DNA topoisomers was determined using KODAK 1D Image Analysis Software. The percentage of (−) supercoiled DNA was calculated from a comparison of the intensity of the (−) supercoiled band with the total intensity of all DNA topoisomers. The IC50 was calculated as the amount of the drug for which 50% of the DNA was in a (−) supercoiled state.

[2] = system: Escherichia coli ATCC 25922; assay: MIC by microbroth dilution, E. coli 25922; type: cell-based; conditions: for MIC S3 = E. coli 25922: 24 h 37° C.; for MIC: Escherichia coli, ATCC25922, 24 h 37° C., read-out: MIC S3 = E. coli 25922
Method: (§1) Minimum Inhibitory Concentration (MIC) Determination:
(§2) Bacteria used in this study were Staphylococcus aureus ATCC 29213, Escherichia coli ATCC 25922, Escherichia coli K12, Staphylococcus aureus ATCC 33591, Pseudomonas aeruginosa ATCC 27853, and Enterococcus faecalis ATCC 29212. All compounds were tested by the microbroth dilution method following Clinical and Laboratory Standards Institute guidelines. Briefly, Mueller-Hinton broth (Difco Laboratories, Becton Dickinson) was inoculated with each organism and incubated at 37° C. with shaking to establish logarithmic growth. Following incubation, each culture was pelleted by centrifugation (3,500×g for 5 min) and resuspended in 0.85% sterile saline solution to an optical density at 625 nm of 0.1. Samples were tested in triplicate using 96 well microplates (Corning Costar Corp. Cambridge, Mass.), yielding final bacterial concentrations of 5×10^5 CFU/mL, and incubated for 24 h at 37° C. Following incubation, optical densities of each well were determined with a μQuant microplate spectrophotometer (BioTek Instruments, Inc., Winooski, Vt.) at 625 nm.

[3] = system: Staphylococcus aureus ATCC 33591; assay: MIC by microbroth dilution, S. aureus 33591; type: cell-based; conditions: for MIC S2 = S. aureus 33591: 24 h 37° C.; for MIC: Staphylococcus aureus, ATCC33591, 24 h 37° C., read-out: MIC S2 = S. aureus 33591
Method: as §1, §2

[4] = system: Staphylococcus aureus ATCC 29213; assay: MIC by microbroth dilution, S. aureus 29213; type: cell-based; conditions: for MIC S1 = S. aureus 29213: 24 h 37° C.; for MIC: Staphylococcus aureus, ATCC29213, 24 h 37° C., read-out: MIC S1 = S. aureus 29213
Method: as §1, §2

[5] = system: Pseudomonas aeruginosa ATCC 27853; assay: MIC by microbroth dilution, P. aeruginosa 27853; type: cell-based; conditions: for MIC S4 = P. aeruginosa 27853: 24 h 37° C.; for MIC: Pseudomonas aeruginosa, ATCC27853, 24 h 37° C., read-out: MIC S4 = P. aeruginosa 27853
Method: as §1, §2

dA60.dT60 duplex = assay: UV thermal denaturation of AT rich DNA duplex; type: binding; conditions: ligand 10 μM, DNA 1 μM/duplex, 10 mM sodium cacodylate, 0.1 mM EDTA, 100 mM NaCl, pH 7.0; for ΔTm (thermal stabilization): duplex alone 62.5° C.
Method: Nucleic acids were purchased from Integrated DNA Technologies (Coraville, Iowa). The concentration of the nucleic acid was determined using the extinction coefficient provided by the supplier. The DNA duplex was prepared by heating the dA60 and dT60 in equimolar ratio in buffer 10 mM sodium cacodylate, 0.1 mM EDTA and 100 mM NaCl at pH 7.0 at 95° C. for 15 minutes and then slowly allowing it to cool back to room temperature. After two days of incubation, the duplex formation was checked by UV thermal denaturation experiments. The stock solution was stored at 4° C. and diluted to desired concentrations as required.
Ultra Violet (UV) Thermal Denaturation Experiments:
All UV spectra were obtained on a 12 cell holder Cary 1E UV-Vis spectrophotometer equipped with temperature controller. Quartz cells with 1 cm path length were used for all the experiments. Spectrophotometer stability and wavelength alignment were checked prior to initiation of each thermal denaturation experiment. For all experiments, the samples were prepared by diluting a stock sample. The melting of DNA with and without the ligand was performed at a heating rate of 0.2° C./min. Samples were brought back to 20° C. after the experiment. All UV melting experiments were monitored at 260 nm. For the Tm determinations, derivatives were used. Data points were recorded every 1.0° C. The DNA concentration was 1 μM/duplex while the ligand concentration was 10 μM. All ligand solutions were prepared in dimethyl sulfoxide (DMSO) as concentrated stock solution (6-10 mM) and diluted to desired concentrations in buffer.
Bisbenzimidazoles are known to bind to the minor groove of AT rich DNA. The UV thermal denaturation experiments of the synthesized ligands were carried out with an AT rich DNA duplex. A 60 mer B-DNA duplex that was prepared by mixing equimolar amounts of a 60 mer homoadenine with a 60 mer homothymine polymer.

DU 145 cell line = assay: Cytotoxicity, sulforhodamine B assay; type: cell-based; conditions: for IC50: 48 h treatment, SRB stain, read-out: IC50 against DU-145
Method: Cytotoxicity Experiments:
The DU 145 cell line was cultured according to ATCC protocols. Cells were harvested using trypsin-EDTA solution and counted using trypan blue exclusion. Cells were seeded at a volume of 100 μl/well in the wells of tissue culture treated 96 well plates at a density of […] per well. Seeded 96 well plates were returned to incubator (37° C., 5% CO2) for twenty-four hours to resume exponential growth.
Cell lines were then treated with 100 μl of each test compound or cisplatin in triplicate. The final concentrations of each treatment were: 20, 10, 5, 2.5, 1.25, 0.625 and 0.0625 μM. Each plate also contained wells containing untreated cells and media only as controls. After receiving treatments, the 96 well plates were returned to incubator (37° C., 5% CO2) for forty-eight hours.
After forty-eight hours of treatment, the treated plates were fixed with trichloroacetic acid and stained with sulforhodamine B using a modified version of the protocol described by Skehan et al. In short, 50 μl of cold 80% TCA was added to each well, at a final concentration of 16% TCA, and plates were incubated at 4° C. for one hour. The media and TCA solution was discarded and plates were washed four times using room temperature tap water. Plates were allowed to air dry overnight. Plates were stained with the addition of 70 μl/well of […] SRB in 1% (v/v) acetic acid solution. Samples were stained for fifteen minutes and then stain was discarded. Plates were then washed four times with 1% (v/v) acetic acid solution to remove unbound stain and allowed to air dry overnight at room temperature. Finally, SRB stain was solubilized by adding 150 μl of 10 mM unbuffered Tris base to each well. The absorbance of each samples at 560 nm was recorded using a Tecan plate reader and the IC50 was determined using Origin 4.0 software. Each study was completed in duplicate.

Sequence of human DNA topoisomerase II (P11388 whole entry): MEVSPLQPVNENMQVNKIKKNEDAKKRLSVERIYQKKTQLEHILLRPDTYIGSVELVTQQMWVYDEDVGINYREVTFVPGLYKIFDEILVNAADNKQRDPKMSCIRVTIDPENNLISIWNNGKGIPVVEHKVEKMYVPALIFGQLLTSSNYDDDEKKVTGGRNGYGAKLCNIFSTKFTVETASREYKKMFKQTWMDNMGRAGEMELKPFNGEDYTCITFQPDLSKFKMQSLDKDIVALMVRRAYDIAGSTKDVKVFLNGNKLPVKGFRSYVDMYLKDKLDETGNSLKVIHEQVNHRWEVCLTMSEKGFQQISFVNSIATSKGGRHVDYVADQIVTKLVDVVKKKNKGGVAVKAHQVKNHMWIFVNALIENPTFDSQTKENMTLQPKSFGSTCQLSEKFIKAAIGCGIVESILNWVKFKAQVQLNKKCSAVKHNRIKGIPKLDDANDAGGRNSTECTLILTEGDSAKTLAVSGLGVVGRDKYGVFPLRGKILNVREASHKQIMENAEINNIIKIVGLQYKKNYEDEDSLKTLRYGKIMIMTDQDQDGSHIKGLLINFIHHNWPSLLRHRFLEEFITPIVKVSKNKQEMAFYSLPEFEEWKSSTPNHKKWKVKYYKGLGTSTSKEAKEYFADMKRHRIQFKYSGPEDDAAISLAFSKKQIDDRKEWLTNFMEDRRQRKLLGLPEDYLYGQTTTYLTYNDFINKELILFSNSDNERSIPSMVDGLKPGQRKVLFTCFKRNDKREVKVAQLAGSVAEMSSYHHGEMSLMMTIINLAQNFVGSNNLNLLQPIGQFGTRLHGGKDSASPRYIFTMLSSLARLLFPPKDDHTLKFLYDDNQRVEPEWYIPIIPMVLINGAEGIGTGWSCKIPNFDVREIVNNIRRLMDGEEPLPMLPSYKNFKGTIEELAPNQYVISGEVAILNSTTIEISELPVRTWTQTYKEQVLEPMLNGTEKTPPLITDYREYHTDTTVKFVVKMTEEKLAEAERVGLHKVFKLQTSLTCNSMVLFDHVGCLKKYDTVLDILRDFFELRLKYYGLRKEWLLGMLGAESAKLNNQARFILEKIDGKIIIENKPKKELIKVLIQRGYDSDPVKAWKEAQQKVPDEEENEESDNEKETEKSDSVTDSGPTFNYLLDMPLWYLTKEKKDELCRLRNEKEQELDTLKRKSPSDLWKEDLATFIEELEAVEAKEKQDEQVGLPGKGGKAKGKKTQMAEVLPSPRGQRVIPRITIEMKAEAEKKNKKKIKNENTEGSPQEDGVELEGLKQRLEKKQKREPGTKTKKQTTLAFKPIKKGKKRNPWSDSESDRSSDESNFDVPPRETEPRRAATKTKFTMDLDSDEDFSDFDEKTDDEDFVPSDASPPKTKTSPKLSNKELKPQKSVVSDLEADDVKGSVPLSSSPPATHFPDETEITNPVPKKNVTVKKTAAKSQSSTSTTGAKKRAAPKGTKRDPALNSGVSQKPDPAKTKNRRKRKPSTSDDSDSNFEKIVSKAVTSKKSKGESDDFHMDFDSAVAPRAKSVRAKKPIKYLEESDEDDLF

## CN1CCN(c2ccc3[nH]c(-c4ccc5[nH]c(-c6ccc(O)cc6)nc5c4)nc3c2)CC1 [Hoechst 33258, reference compound]
[1]
  inhibition of human DNA topoisomerase II activities at 50 μM: completely inhibit
  IC50: 28.9 ± 4.45 µM
[2]
  MIC S3 = E. coli 25922: 16 µg/mL (≈ 37.7 µM)
[3]
  MIC S2 = S. aureus 33591: 16 to 32 µg/mL
[4]
  MIC S1 = S. aureus 29213: ≥32^ ^ μg/ml
[5]
  MIC S4 = P. aeruginosa 27853: 16 µg/mL (≈ 37.7 µM)
dA60.dT60 duplex
  Tm: 87.1 °C
  ΔTm (thermal stabilization): ~24 °C and 24.6 °C

## CCOc1ccc(-c2nc3ccc(-c4nc5ccc(N6CCN(C)CC6)cc5[nH]4)cc3[nH]2)cc1 [Hoechst 33342, reference compound]
[2]
  MIC S3 = E. coli 25922: 8 to 16 µg/mL
[3]
  MIC S2 = S. aureus 33591: 2 to 4 µg/mL
[4]
  MIC S1 = S. aureus 29213: 2 to 4 µg/mL
[5]
  MIC S4 = P. aeruginosa 27853: 16 µg/mL (≈ 35.4 µM)
DU 145 cell line
  IC50: 4.25 µM
dA60.dT60 duplex
  Tm: 86.6 °C
  ΔTm (thermal stabilization): ~24 °C
dA60.dT60 duplex; listed as Hoechst 33242
  ΔTm (thermal stabilization): 24.1 °C

## C#CCOCCCCOc1ccc(-c2nc3ccc(-c4nc5ccc(N6CCN(C)CC6)cc5[nH]4)cc3[nH]2)cc1 [DPA 154, 6-(4-methylpiperazin-1-yl)-2′-(4-(4-(prop-2-ynyloxy)butoxy)phenyl)-1H,3′H-2,5′-bibenzo[d]imidazole]
[2]
  MIC: 8 to 16 µg/mL (≈ 15 to 29.9 µM)
[3]
  MIC: 2 to 4 µg/mL (≈ 3.74 to 7.48 µM)
[4]
  MIC: 2 to 4 µg/mL (≈ 3.74 to 7.48 µM)
other
  melting point: 150 to 155 °C
[5]
  MIC: 16 µg/mL (≈ 29.9 µM)
DU 145 cell line; Homo sapiens, DU-145
  IC50: 2.79 ± 0.13 µM
dA60.dT60 duplex
  Tm: 85.9 °C
  ΔTm (thermal stabilization): 23.4 °C

## C#CCOc1ccc(-c2nc3ccc(-c4nc5ccc(N6CCN(C)CC6)cc5[nH]4)cc3[nH]2)cc1 [DPA 151, 6-(4-methylpiperazin-1-yl)-2′-(4-(prop-2-ynyloxy)phenyl)-1H,3′H-2,5′-bibenzo[d]imidazole]
[1]
  inhibition of human DNA topoisomerase II activities at 50 μM: partially inhibit
  IC50: 51.6 ± 2.5 µM
[2]
  MIC: 8 µg/mL (≈ 17.3 µM)
[3]
  MIC: 2 to 4 µg/mL (≈ 4.32 to 8.65 µM)
[4]
  MIC: 2 to 4 µg/mL (≈ 4.32 to 8.65 µM)
DU 145 cell line; Homo sapiens, DU-145
  IC50: 3.24 ± 0.71 µM
dA60.dT60 duplex
  Tm: 85.4 °C
  ΔTm (thermal stabilization): 22.9 °C and 23.9 °C

## C#CCCCCCCCCCOc1ccc(-c2nc3ccc(-c4nc5ccc(N6CCN(C)CC6)cc5[nH]4)cc3[nH]2)cc1 [DPA 153, 6-(4-methylpiperazin-1-yl)-2′-(4-(undec-10-ynyloxy)phenyl)-1H,3′H-2,5′-bibenzo[d]imidazole]
other
  melting point: 170 to 175 °C
DU 145 cell line; Homo sapiens, DU-145
  IC50: > 10 µM
dA60.dT60 duplex
  Tm: 70.5 °C
  ΔTm (thermal stabilization): 8 °C

## C#CCCCCOc1ccc(-c2nc3ccc(-c4nc5ccc(N6CCN(C)CC6)cc5[nH]4)cc3[nH]2)cc1 [DPA 152, 2′-(4-(hex-5-ynyloxy)phenyl)-6-(4-methylpiperazin-1-yl)-1H,3′H-2,5′-bibenzo[d]imidazole]
[2]
  MIC: 8 to 16 µg/mL (≈ 15.9 to 31.7 µM)
[3]
  MIC: 2 to 4 µg/mL (≈ 3.96 to 7.93 µM)
[4]
  MIC: 2 to 4 µg/mL (≈ 3.96 to 7.93 µM)
other
  melting point: 210 to 220 °C
[5]
  MIC: 16 µg/mL (≈ 31.7 µM)
DU 145 cell line; DU-145, 48 h
  cytotoxicity relative to Hoechst 33242: nearly twice as toxic as Hoechst 33242
DU 145 cell line; Homo sapiens, DU-145
  IC50: 2.12 ± 0.46 µM
dA60.dT60 duplex
  Tm: 83.4 °C
  ΔTm (thermal stabilization): 20.9 °C
